Columns and labels:
Format in all cases: in vivo, swine
[1] = tested on: ovariectomized estrogen primed gilt; experiment: Dose response study of LH release in ovariectomized estrogen primed gilt model (RIA); settings: single injection of 50 mcg in SAIB
Experimental: A dose response study was performed using deslorelin in SAIB in an ovariectomized estrogen primed gilt model (Barb, et al. (1999) Proceed. Int'l. Symp. Control. Rel. Bioact. Mater., 26).

mature postpartum sows = experiment: Deslorelin injected intravulvar at estrus detection with AI breeding in mature postpartum sows (Example 2)
Experimental: Sows were assigned randomly in blocks of two to either control or to be injected intravulvar with 50 mcg of deslorelin in SAIB at the time of estrus detection for sows first detected in estrus in the a.m. and 12 hours later for those first detected in estrus in the p.m. Treated animals were bred AI upon detected estrus and again 24 hours later if still in estrus. Controls received a saline injection on first detected estrus behavior estrus detection and were bred according to the farm's normal procedures.

postpartum sows [2] = experiment: Timed deslorelin injection 96 hours post-weaning and single timed insemination without estrus detection (Example 3)
Experimental: (§1) Approximately 170 postpartum sows were randomly divided into two equal groups comprised of controls and treated. Following weaning, the controls were detected for estrus and bred following the normal standard operating procedures for the farms on which they resided. The treated sows received a 50 mcg dose of deslorelin in SAIB at 96 hours post-weaning and were bred with a single insemination 28+/−2 hours later with no regard to estrus detection. The sows were examined for pregnancy by ultrasound at 21 days and slaughtered around 28 days post breeding. The entire reproductive tract was removed and corpora lutea and embryos were counted.

postpartum sows [3] = experiment: Litter size after deslorelin treatment in postpartum sows at three farm sites (Example 4); settings: Tables 3 to 5, regardless of estrus detection
Excerpt: Postpartum sows were randomly distributed into three different groups comprised of Controls, Treatment 1, and Treatment 2, with the exception of Site 3, which was divided into two groups, Control and Treatment 2. Control sows were detected for estrus following weaning, and bred following the normal standard operating procedures for the farms on which they resided. Treatment 1 sows were detected for estrus following weaning, and received a 50 mcg dose of deslorelin in the morning when standing and were bred by AI 4 hours later and again at 24+/−2 hours later. Treatment 2 sows received a 50 mcg dose of deslorelin in SAIB at 96 or 120 hours post-weaning and were bred with a single insemination 28+/−2 hours later with no regard to estrus detection.

postpartum sows [4] = experiment: Pregnancy rate after deslorelin treatment in sows, summary of Tables 2 to 5; settings: Table 6
Experimental: as §1, with “counted. Postpartum sows were randomly distributed into three different groups comprised of Controls, Treatment 1, and Treatment 2, with the exception of Site 3, which was divided into two groups, Control and Treatment 2. Control sows were detected for estrus following weaning, and bred following the normal standard operating procedures for the farms on which they resided. Treatment 1 sows were detected for estrus following weaning, and received a 50 mcg dose of deslorelin in the morning when standing and were bred by AI 4 hours later and again at 24+/−2 hours later. Treatment 2 sows received a 50 mcg dose of deslorelin in SAIB at 96 or 120 hours post-weaning and were bred with a single insemination 28+/−2 hours later with no regard to estrus detection. […]” for “counted.”

[5] = 50 μg deslorelin acetate intravulvar at first estrus detection, AI, AI again if in estrus next day

Question: Which results are given for CCNC(=O)[C@@H]1CCCN1C(=O)[C@H](CCCN=C(N)N)NC(=O)[C@H](CC(C)C)NC(=O)[C@@H](Cc1c[nH]c2ccccc12)NC(=O)[C@H](Cc1ccc(O)cc1)NC(=O)[C@H](CO)NC(=O)[C@H](Cc1c[nH]c2ccccc12)NC(=O)[C@H](Cc1cnc[nH]1)NC(=O)[C@@H]1CCC(=O)N1 [Deslorelin, deslorelin]?
Answer: Time of LH return to base level [1]: ≤ 18 h; LH peak relative to normal value ([1]; normal value from Hansel et al. 1973): about twice normal value; Length of Estrus (mature postpartum sows; [5]): 40.81 h; Pregnancy Rate (mature postpartum sows; [5]): 91%; Pregnancy rates, Control versus Treated (mature postpartum sows; 50 μg intravulvar at first estrus detection): no significant difference; Pregnancy Rate (postpartum sows [2]; 50 mcg in SAIB 96 hours post-weaning, single insemination 28+/-2 hours later, no estrus detection): 71%; Sows Pregnant (postpartum sows [2]; 50 mcg in SAIB 96 hours post-weaning, single insemination 28+/-2 hours later, 84 sows in group, ultrasound at 21 days): 60; Embryo Survival (postpartum sows [2]; 50 mcg in SAIB 96 hours post-weaning, slaughter around 28 days post breeding): 64%; Pregnancy rates (postpartum sows [2]; single timed injection post-weaning, single timed insemination, no estrus detection): normal pregnancy rates were attained; Litter sizes (postpartum sows [3]): normal litter sizes; Pregnancy rates (postpartum sows [4]): normal pregnancy rates were obtained
